{"source": "patent US12604900B2", "about": "“Penflufen as a wood preservative against wood- destroying basidiomy cetes” (LANXESS Deutschland GmbH, priority 2010, dated 2026)", "key": {"Coniophora puteana [1]": {"test_system": "Coniophora puteana", "experiment": "Synergism test (MIC of radial hyphae growth, SI by Kull)", "format": "cell-based", "experimental": "(§1) Mycelium pieces were punched out of a colony of the wood-destroying fungus in question and incubated on a malt extract/peptone-containing nutrient agar at 26° C. The growth of the hyphae with and without active compound was compared. The minimum inhibitory concentration (MIC) stated was the concentration at which the radial hyphae growth was suppressed completely.\n(§2) The synergism was determined using the method described by Kull et al. (F. C. Kull, P. C. Eismann, H. D. Sylvestrowicz, R. L. Mayer, Applied Microbiology 1961, 9, 538-541)."}, "Lentinus tigrinus [2]": {"test_system": "Lentinus tigrinus", "experiment": "Synergism test (MIC of radial hyphae growth, SI by Kull)", "format": "cell-based", "conditions": "read-out: MIC (ppm) Lentinus tigrinus", "experimental": "as §1, §2"}, "Coriolus versicolor [3]": {"test_system": "Coriolus versicolor", "experiment": "Synergism test (MIC of radial hyphae growth, SI by Kull)", "format": "cell-based", "conditions": "Trametes versicolor", "experimental": "as §1, §2"}, "Poria placenta [4]": {"test_system": "Poria placenta", "experiment": "Synergism test (MIC of radial hyphae growth, SI by Kull)", "format": "cell-based", "experimental": "as §1, §2"}, "Coriolus versicolor [5]": {"test_system": "Coriolus versicolor", "experiment": "Inhibition test with giant colonies of wood-destroying basidiomycetes", "format": "cell-based", "conditions": "Trametes versicolor, 168 h; 1 ppm active compound, agar, 26° C., about 1 week", "experimental": "(§3) Mycelium pieces were punched out of colonies of Coniophora puteana, Poria placenta, Lentinus tigrinus, Coriolus versicolor and Gloeophyllum trabeum and incubated on an agar nutrient soil at 26° C. The inhibition of the growth of the hyphae on active compound-comprising nutrient soil was compared to the longitudinal growth without addition of active compound and rated as inhibition in percent (incubation time: about 1 week, depending on the fungal growth of the comparative sample without active compound)."}, "Coniophora puteana [6]": {"test_system": "Coniophora puteana", "experiment": "Inhibition test with giant colonies of wood-destroying basidiomycetes", "format": "cell-based", "conditions": "168 h, 1 ppm active compound, agar, 26° C., about 1 week", "experimental": "as §3"}, "Poria placenta [7]": {"test_system": "Poria placenta", "experiment": "Inhibition test with giant colonies of wood-destroying basidiomycetes", "format": "cell-based", "conditions": "168 h; 1 ppm active compound, agar, 26° C., about 1 week", "experimental": "as §3"}, "Lentinus tigrinus [8]": {"test_system": "Lentinus tigrinus", "experiment": "Inhibition test with giant colonies of wood-destroying basidiomycetes", "format": "cell-based", "conditions": "168 h, 1 ppm active compound, agar, 26° C., about 1 week", "experimental": "as §3"}, "Gloeophyllum trabeum [9]": {"test_system": "Gloeophyllum trabeum", "experiment": "Inhibition test with giant colonies of wood-destroying basidiomycetes", "format": "cell-based", "conditions": "168 h, 1 ppm active compound, agar, 26° C., about 1 week", "experimental": "as §3"}, "Stereum sanguinolentum": {"test_system": "Stereum sanguinolentum", "experiment": "Synergism test (MIC of radial hyphae growth, SI by Kull)", "format": "cell-based", "conditions": "2.4 penflufen and tebuconazole, read-out: MIC against Stereum sanguinolentum (ppm)", "experimental": "as §1, §2"}, "Coniophora puteana [10]": {"test_system": "Coniophora puteana", "experiment": "Activity test analogously to EN113 on drenched pine specimens", "conditions": "for Loss of mass [%]: pine, 6 weeks, mean of 6 specimens (untreated: 24)", "experimental": "(§4) Penflufen (I) was tested analogously to the EN113 standard test for activity against wood-destroying fungi. In contrast to the standard test, smaller pieces of wood were used and the pieces of wood were exposed to attack by the fungi for a shorter period of time.\n(§5) To this end, dried test specimen (25×15×4 mm) made of pine (Pinus sylvestris) were in each case vacuum-drenched with solutions of penflufen (I) in toluene. From the concentration of penflufen (I) in the drench solution and the uptake of the drench solution into the test specimen, the amount of active compound taken up by the test specimen (retention) was calculated. The test specimens were dried and then weighed. To prevent falsifying colonisation by foreign pathogens, the test specimen were sterilised with y rays.\nThe test specimens were brought into contact with the wood-destroying organism Coniophora puteana and stored for 6 weeks. The test pieces of wood were then cleaned, dried and weighed. This was used to calculate the loss of mass. For each retention, the mean of 6 test specimens was determined."}, "Gloeophyllum trabeum [11]": {"test_system": "Gloeophyllum trabeum", "experiment": "Synergism test (MIC of radial hyphae growth, SI by Kull)", "format": "cell-based", "conditions": "2.3 penflufen and copper(II) oxide, read-out: MIC against Gloeophyllum trabeum (ppm)", "experimental": "Mycelium pieces were punched out of a colony of the wood-destroying fungus in question and incubated on a malt extract/peptone-containing nutrient agar at 26° C. […] The minimum inhibitory concentration (MIC) stated was the concentration at which the radial hyphae growth was suppressed completely."}, "Poria placenta [12]": {"test_system": "Poria placenta", "experiment": "Activity test analogously to EN113 on drenched pine specimens", "conditions": "for Loss of mass [%]: pine, 6 weeks, mean of 6 specimens (untreated: 20)", "experimental": "as §4, §5\nThe test specimen were brought into contact with the wood-destroying organism Poria placenta and stored for 6 weeks. The test pieces of wood were then cleaned, dried and weighed. This was used to calculate the loss of mass. For each retention, the mean of 6 test specimens was determined."}, "[13]": {"conditions": "2.9 penflufen and bifenthrin, read-out: MIC against Coriolus versicolor (ppm)"}, "[14]": {"conditions": "2.1 penflufen and thiabendazole, malt extract/peptone agar 26° C., read-out: MIC against Coriolus versicolor (ppm)"}, "[15]": {"conditions": "2.6 penflufen and permethrin, read-out: MIC against Poria placenta (ppm)"}, "[16]": {"conditions": "2.5 penflufen and propiconazole, read-out: MIC against Coniophora puteana (ppm)"}, "[17]": {"conditions": "2.2 penflufen and fenpropimorph, read-out: MIC (ppm) Coniophora puteana"}, "[18]": {"conditions": "2.2 penflufen and fenpropimorph"}, "[19]": {"conditions": "result in words, EN113-like test"}, "[20]": {"conditions": "retention of penflufen 50 g/m^3"}}, "note": "Like-named read-outs stand apart in the source and are kept apart here."}
{"smiles": "CCCN(CCOc1c(Cl)cc(Cl)cc1Cl)C(=O)n1ccnc1", "note": "[prochloraz, reference compound]", "values": [{"measurement": "MIC", "setting": "Coniophora puteana [1]; read-out: MIC (ppm) Coniophora puteana", "value": "> 30", "unit": "µg/mL"}, {"measurement": "MIC", "setting": "Lentinus tigrinus [2]", "value": 20, "unit": "µg/mL"}]}
{"smiles": "CC1(C)C(C=C(Cl)Cl)C1C(=O)OC(C#N)c1cccc(Oc2ccccc2)c1", "note": "(stereo not shown) [cypermethrin, reference compound]", "values": [{"measurement": "MIC", "setting": "Coriolus versicolor [3]; read-out: MIC (ppm) Coriolus versicolor", "value": "> 100", "unit": "µg/mL"}, {"measurement": "MIC", "setting": "Poria placenta [4]; read-out: MIC (ppm) Poria placenta", "value": "> 100", "unit": "µg/mL"}]}
{"smiles": "Cc1c(COC(=O)[C@@H]2[C@H](/C=C(\\Cl)C(F)(F)F)C2(C)C)cccc1-c1ccccc1", "note": "(racemic) [bifenthrin, reference compound]", "values": [{"measurement": "MIC", "setting": "Coriolus versicolor [3]; [13]", "value": 60, "unit": "µg/mL"}]}
{"smiles": "C=C(c1ccccc1NC(=O)c1c(C)nn(C)c1F)C(C)C", "note": "[III]", "values": [{"measurement": "inhibition at 1 ppm", "setting": "Coriolus versicolor [5]", "value": 78, "unit": "%"}, {"measurement": "inhibition at 1 ppm", "setting": "Coniophora puteana [6]", "value": 25, "unit": "%"}, {"measurement": "inhibition at 1 ppm", "setting": "Poria placenta [7]", "value": 45, "unit": "%"}, {"measurement": "inhibition at 1 ppm", "setting": "Lentinus tigrinus [8]", "value": 37, "unit": "%"}, {"measurement": "inhibition at 1 ppm", "setting": "Gloeophyllum trabeum [9]", "value": 18, "unit": "%"}]}
{"smiles": "CCCC(C)c1ccccc1NC(=O)c1c(C)nn(C)c1F", "note": "(stereo not shown) [II]", "values": [{"measurement": "inhibition at 1 ppm", "setting": "Coriolus versicolor [5]", "value": 15, "unit": "%"}, {"measurement": "inhibition at 1 ppm", "setting": "Coniophora puteana [6]", "value": 12, "unit": "%"}, {"measurement": "inhibition at 1 ppm", "setting": "Poria placenta [7]", "value": 3, "unit": "%"}, {"measurement": "inhibition at 1 ppm", "setting": "Lentinus tigrinus [8]", "value": 17, "unit": "%"}, {"measurement": "inhibition at 1 ppm", "setting": "Gloeophyllum trabeum [9]", "value": 11, "unit": "%"}]}
{"smiles": "c1ccc2[nH]c(-c3cscn3)nc2c1", "note": "[thiabendazole, reference compound]", "values": [{"measurement": "MIC", "setting": "Coriolus versicolor [3]; [14]", "value": 3, "unit": "µg/mL"}]}
{"smiles": "CC1(C)C(C=C(Cl)Cl)C1C(=O)OCc1cccc(Oc2ccccc2)c1", "note": "(stereo not shown) [permethrin, reference compound]", "values": [{"measurement": "MIC", "setting": "Poria placenta [4]; [15]", "value": "> 100", "unit": "µg/mL"}]}
{"smiles": "CC(C)(C)C(O)(CCc1ccc(Cl)cc1)Cn1cncn1", "note": "(stereo not shown) [tebuconazole, reference compound]", "values": [{"measurement": "MIC", "setting": "Stereum sanguinolentum", "value": 6, "unit": "µg/mL"}]}
{"smiles": "CCCC1COC(Cn2cncn2)(c2ccc(Cl)cc2Cl)O1", "note": "(stereo not shown) [propiconazole, reference compound]", "values": [{"measurement": "MIC", "setting": "Coniophora puteana [1]; [16]", "value": 3, "unit": "µg/mL"}]}
{"smiles": "CC(Cc1ccc(C(C)(C)C)cc1)CN1C[C@@H](C)O[C@@H](C)C1", "note": "(stereo partly shown) [fenpropimorph, reference compound]", "values": [{"measurement": "MIC", "setting": "Coniophora puteana [1]; [17]", "value": 30, "unit": "µg/mL"}, {"measurement": "MIC", "setting": "Lentinus tigrinus [2]; [18]", "value": 30, "unit": "µg/mL"}]}
{"smiles": "Cc1nn(C)c(F)c1C(=O)Nc1ccccc1C(C)CC(C)C", "note": "(stereo not shown) [penflufen]", "values": [{"measurement": "MIC", "setting": "Coriolus versicolor [3]; 2.10 penflufen and cypermethrin, read-out: MIC (ppm) Coriolus versicolor", "value": 0.1, "unit": "µg/mL"}, {"measurement": "MIC", "setting": "Coriolus versicolor [3]; [14]", "value": 0.3, "unit": "µg/mL"}, {"measurement": "MIC", "setting": "Coriolus versicolor [3]; [13]", "value": 0.1, "unit": "µg/mL"}, {"measurement": "MIC", "setting": "Coniophora puteana [1]; [17]", "value": 1, "unit": "µg/mL"}, {"measurement": "MIC", "setting": "Coniophora puteana [1]; [16]", "value": 3, "unit": "µg/mL"}, {"measurement": "MIC", "setting": "Coniophora puteana [1]; 2.8 penflufen and prochloraz, read-out: MIC (ppm) Coniophora puteana", "value": 3, "unit": "µg/mL"}, {"measurement": "MIC", "setting": "Poria placenta [4]; 2.10 penflufen and cypermethrin, read-out: MIC (ppm) Poria placenta", "value": 0.1, "unit": "µg/mL"}, {"measurement": "MIC", "setting": "Poria placenta [4]; [15]", "value": 0.1, "unit": "µg/mL"}, {"measurement": "MIC against Poria placenta (ppm)", "setting": "Poria placenta [4]; 2.7 penflufen and etofenprox", "value": 0.1, "unit": "ppm"}, {"measurement": "MIC", "setting": "Stereum sanguinolentum", "value": 3, "unit": "µg/mL"}, {"measurement": "MIC", "setting": "Lentinus tigrinus [2]; [18]", "value": 0.5, "unit": "µg/mL"}, {"measurement": "MIC", "setting": "Lentinus tigrinus [2]; 2.8 penflufen and prochloraz", "value": 0.3, "unit": "µg/mL"}, {"measurement": "inhibition at 1 ppm", "setting": "Coriolus versicolor [5]", "value": 100, "unit": "%"}, {"measurement": "inhibition at 1 ppm", "setting": "Coniophora puteana [6]", "value": 100, "unit": "%"}, {"measurement": "inhibition at 1 ppm", "setting": "Poria placenta [7]", "value": 100, "unit": "%"}, {"measurement": "inhibition at 1 ppm", "setting": "Lentinus tigrinus [8]", "value": 100, "unit": "%"}, {"measurement": "inhibition at 1 ppm", "setting": "Gloeophyllum trabeum [9]", "value": 100, "unit": "%"}, {"measurement": "activity against the wood-destroying fungus Coniophora puteana", "setting": "Coniophora puteana [10]; [19]", "value": "very good activity"}, {"measurement": "Loss of mass [%]", "setting": "Coniophora puteana [10]; [20]", "value": 0, "unit": "%"}, {"measurement": "Loss of mass [%]", "setting": "Coniophora puteana [10]; retention of penflufen 103 g/m^3", "value": 0, "unit": "%"}, {"measurement": "MIC", "setting": "Gloeophyllum trabeum [11]", "value": 0.3, "unit": "µg/mL"}, {"measurement": "activity against the wood-destroying fungus Poria placenta", "setting": "Poria placenta [12]; [19]", "value": "very good activity"}, {"measurement": "Loss of mass [%]", "setting": "Poria placenta [12]; [20]", "value": 0, "unit": "%"}, {"measurement": "Loss of mass [%]", "setting": "Poria placenta [12]; retention of penflufen 102 g/m^3", "value": 0, "unit": "%"}]}
{"smiles": "CCOc1ccc(C(C)(C)COCc2cccc(Oc3ccccc3)c2)cc1", "note": "[etofenprox, reference compound]", "values": [{"measurement": "MIC", "setting": "Poria placenta [4]; 2.7 penflufen and etofenprox, read-out: MIC against Poria placenta (ppm)", "value": "> 100", "unit": "µg/mL"}]}
